# Assay results as given in patent US9695155B2, “Herbicidal substituted pyrimidinyloxy benzene compounds” (E. I. DU PONT DE NEMOURS AND COMPANY, priority 2013, dated 2017).
# Columns and labels:
# deadnettle = assay: Test D preemergence; format: in vivo, Lamium amplexicaule
# Text: (§1) Seeds of plant species selected from bluegrass (annual bluegrass, Poa annua), blackgrass (Alopecurus myosuroides), canarygrass (littleseed canarygrass, Phalaris minor), chickweed (common chickweed, Stellaria media), galium (catchweed bedstraw, Galium aparine), bromegrass, downy (downy bromegrass, Bromus tectorum), field poppy (Papaver rhoeas), field violet (Viola arvensis), green foxtail (Setaria viridis), deadnettle (henbit deadnettle, Lamium amplexicaule), Italian ryegrass (Lolium multiflorum), kochia (Kochia scoparia), lambsquarters (Chenopodium album), oilseed rape (Brassica napus), pigweed (Amaranthus retroflexus), chamomile (scentless chamomile, Matricaria inodora), Russian thistle (Salsola kali), speedwell (bird's-eye speedwell, Veronica persica), spring barley (Hordeum vulgare), spring wheat (Triticum aestivum), wild buckwheat (Polygonum convolvulus), wild mustard (Sinapis arvensis), wild oat (Avena fatua), wild radish (Raphanus raphanistrum), windgrass (Apera spica-venti), winter barley (Hordeum vulgare), and winter wheat (Triticum aestivum) were planted into a silt loam soil and treated preemergence with test chemicals formulated in a non-phytotoxic solvent mixture which included a surfactant.
# (§2) At the same time, these species were planted in pots containing Redi-Earth® planting medium (Scotts Company, 14111 Scottslawn Road, Marysville, Ohio 43041) comprising spaghnum peat moss, vermiculite, wetting agent and starter nutrients and treated with postemergence applications of the test chemicals formulated in the same manner. Plants ranged in height from 2 to 18 cm (1- to 4-leaf stage). Treated plants and controls were maintained in a controlled growth environment for 7 to 21 days after which time all species were compared to controls and visually evaluated. Plant response ratings, summarized in Table D, are based on a scale of 0 to 100 where 0 is no effect and 100 is complete control. A dash (-) response means no test result.
# speedwell = assay: Test D preemergence; format: in vivo, Veronica persica
# Text: as §1, §2
# spring wheat = assay: Test D preemergence; format: in vivo, Triticum aestivum
# Text: as §1, §2
# winter wheat = assay: Test D preemergence; format: in vivo, Triticum aestivum
# Text: as §1, §2
# wild oat = assay: Test D preemergence; format: in vivo, Avena fatua
# Text: as §1, §2
# wild radish = assay: Test D preemergence; format: in vivo, Raphanus raphanistrum
# Text: as §1, §2
# bluegrass = assay: Test D postemergence; format: in vivo, Poa annua; conditions: Postemergence, scale 0 to 100 (0 no effect, 100 complete control)
# Text: as §1, §2
# field poppy = assay: Test D postemergence; format: in vivo, Papaver rhoeas
# Text: as §1, §2
# field violet = assay: Test D postemergence; format: in vivo, Viola arvensis
# Text: as §1, §2
# [1] = 31 g ai/ha, scale 0 (no effect) to 100 (complete control)
# [2] = 62 g ai/ha, scale 0 to 100 (0 no effect, 100 complete control)
# [3] = 125 g ai/ha, scale 0 to 100 (0 no effect, 100 complete control)
# [4] = 250 g ai/ha, scale 0 to 100 (0 no effect, 100 complete control)
compound,measurement,setting,value
N#Cc1cccc(Oc2ncc(Cl)cn2)c1-n1cc(-n2ccc(C(F)(F)F)n2)cn1 [Compound 284],"Plant response rating, Deadnettle",deadnettle; [1],35
same,"Plant response rating, Deadnettle","deadnettle; 62 g ai/ha, scale 0-100",45
same,"Plant response rating, Deadnettle","deadnettle; 125 g ai/ha, scale 0-100",75
same,"Plant response rating, Deadnettle","deadnettle; 250 g ai/ha, scale 0-100",100
same,"Plant response rating, Speedwell",speedwell; [1],0
same,"Plant response rating, Speedwell","speedwell; 125 g ai/ha, scale 0-100",100
same,"Plant response rating, Speedwell","speedwell; 250 g ai/ha, scale 0-100",100
same,"Plant response rating, Wheat, Spring",spring wheat; [1],10
same,"Plant response rating, Wheat, Spring","spring wheat; 125 g ai/ha, scale 0-100",20
same,"Plant response rating, Wheat, Spring","spring wheat; 250 g ai/ha, scale 0-100",30
same,"Plant response rating, Wheat, Winter",winter wheat; [1],15
same,"Plant response rating, Wheat, Winter","winter wheat; 125 g ai/ha, scale 0-100",20
same,"Plant response rating, Wheat, Winter","winter wheat; 250 g ai/ha, scale 0-100",25
same,"Plant response rating, Oat, Wild",wild oat; [1],0
same,"Plant response rating, Oat, Wild","wild oat; 62 g ai/ha, scale 0-100",0
same,"Plant response rating, Oat, Wild","wild oat; 125 g ai/ha, scale 0-100",20
same,"Plant response rating, Oat, Wild","wild oat; 250 g ai/ha, scale 0-100",50
same,"Plant response rating, Radish, Wild",wild radish; [1],0
same,"Plant response rating, Radish, Wild","wild radish; 125 g ai/ha, scale 0-100",0
same,"Plant response rating, Radish, Wild","wild radish; 250 g ai/ha, scale 0-100",35
same,"Plant response rating, Bluegrass",bluegrass; 62 g ai/ha,35
same,"Plant response rating, Bluegrass",bluegrass; 31 g ai/ha,25
same,"Plant response rating, Bluegrass",bluegrass; 125 g ai/ha,40
same,"Plant response rating, Bluegrass",bluegrass; 250 g ai/ha,45
same,"Plant response rating, Field Poppy","field poppy; 31 g ai/ha, scale 0-100",65
same,"Plant response rating, Field Poppy",field poppy; [2],70
same,"Plant response rating, Field Poppy",field poppy; [3],100
same,"Plant response rating, Field Poppy",field poppy; [4],100
same,"Plant response rating, Field Violet","field violet; 31 g ai/ha, scale 0-100",100
same,"Plant response rating, Field Violet",field violet; [2],85
same,"Plant response rating, Field Violet",field violet; [3],100
same,"Plant response rating, Field Violet",field violet; [4],100
"Fc1cccc(Oc2ncc(Cl)cn2)c1-n1cc(Br)cn1 [Compound 178, 2-[2-(4-bromo-1H-pyrazol-1-yl)-3-fluorophenoxy]-5-chloropyrimidine]",pest or weed control at 16 g/ha,"deadnettle; Lamium amplexicaule, pre-emergence, 16 g ai/ha, scale 0 (no effect) to 100 (complete control), read-out: Plant response rating, Deadnettle",50%
same,pest or weed control at 31 g/ha,"deadnettle; Lamium amplexicaule, pre-emergence, 31 g ai/ha, scale 0-100, read-out: Plant response rating, Deadnettle",60%
same,pest or weed control at 62 g/ha,"deadnettle; Lamium amplexicaule, pre-emergence, 62 g ai/ha, scale 0-100, read-out: Plant response rating, Deadnettle",75%
same,pest or weed control at 125 g/ha,"deadnettle; Lamium amplexicaule, pre-emergence, 125 g ai/ha, scale 0-100, read-out: Plant response rating, Deadnettle",100%
same,pest or weed control at 16 g/ha,"speedwell; Veronica persica, pre-emergence, 16 g ai/ha, scale 0 (no effect) to 100 (complete control), read-out: Plant response rating, Speedwell",100%
same,pest or weed control at 31 g/ha,"speedwell; Veronica persica, pre-emergence, 31 g ai/ha, scale 0 (no effect) to 100 (complete control), read-out: Plant response rating, Speedwell",100%
same,pest or weed control at 62 g/ha,"speedwell; Veronica persica, pre-emergence, 62 g ai/ha, scale 0-100, read-out: Plant response rating, Speedwell",100%
same,pest or weed control at 125 g/ha,"speedwell; Veronica persica, pre-emergence, 125 g ai/ha, scale 0-100, read-out: Plant response rating, Speedwell",100%
same,pest or weed control at 16 g/ha,"wild oat; Avena fatua, pre-emergence, 16 g ai/ha, scale 0 (no effect) to 100 (complete control), read-out: Plant response rating, Oat, Wild",0%
same,pest or weed control at 31 g/ha,"wild oat; Avena fatua, pre-emergence, 31 g ai/ha, scale 0-100, read-out: Plant response rating, Oat, Wild",0%
same,pest or weed control at 62 g/ha,"wild oat; Avena fatua, pre-emergence, 62 g ai/ha, scale 0-100, read-out: Plant response rating, Oat, Wild",10%
same,pest or weed control at 125 g/ha,"wild oat; Avena fatua, pre-emergence, 125 g ai/ha, scale 0-100, read-out: Plant response rating, Oat, Wild",25%
same,pest or weed control at 16 g/ha,"wild radish; Raphanus raphanistrum, pre-emergence, 16 g ai/ha, scale 0 (no effect) to 100 (complete control), read-out: Plant response rating, Radish, Wild",55%
same,pest or weed control at 31 g/ha,"wild radish; Raphanus raphanistrum, pre-emergence, 31 g ai/ha, scale 0 (no effect) to 100 (complete control), read-out: Plant response rating, Radish, Wild",90%
same,pest or weed control at 62 g/ha,"wild radish; Raphanus raphanistrum, pre-emergence, 62 g ai/ha, scale 0-100, read-out: Plant response rating, Radish, Wild",100%
same,pest or weed control at 125 g/ha,"wild radish; Raphanus raphanistrum, pre-emergence, 125 g ai/ha, scale 0-100, read-out: Plant response rating, Radish, Wild",100%
same,pest or weed control at 16 g/ha,"bluegrass; Poa annua, post-emergence, 16 g ai/ha, read-out: Plant response rating, Bluegrass",20%
same,pest or weed control at 31 g/ha,"bluegrass; Poa annua, post-emergence, 31 g ai/ha, read-out: Plant response rating, Bluegrass",30%
same,pest or weed control at 62 g/ha,"bluegrass; Poa annua, post-emergence, 62 g ai/ha, read-out: Plant response rating, Bluegrass",35%
same,pest or weed control at 125 g/ha,"bluegrass; Poa annua, post-emergence, 125 g ai/ha, read-out: Plant response rating, Bluegrass",55%
same,pest or weed control at 16 g/ha,"field poppy; Papaver rhoeas, post-emergence, 16 g ai/ha, scale 0-100, read-out: Plant response rating, Field Poppy",45%
same,pest or weed control at 31 g/ha,"field poppy; Papaver rhoeas, post-emergence, 31 g ai/ha, scale 0 to 100 (0 no effect, 100 complete control), read-out: Plant response rating, Field Poppy",55%
same,pest or weed control at 62 g/ha,"field poppy; Papaver rhoeas, post-emergence, 62 g ai/ha, scale 0 to 100 (0 no effect, 100 complete control), read-out: Plant response rating, Field Poppy",65%
same,pest or weed control at 125 g/ha,"field poppy; Papaver rhoeas, post-emergence, 125 g ai/ha, scale 0 to 100 (0 no effect, 100 complete control), read-out: Plant response rating, Field Poppy",75%
same,pest or weed control at 16 g/ha,"field violet; Viola arvensis, post-emergence, 16 g ai/ha, scale 0-100, read-out: Plant response rating, Field Violet",50%
same,pest or weed control at 31 g/ha,"field violet; Viola arvensis, post-emergence, 31 g ai/ha, scale 0 to 100 (0 no effect, 100 complete control), read-out: Plant response rating, Field Violet",60%
same,pest or weed control at 62 g/ha,"field violet; Viola arvensis, post-emergence, 62 g ai/ha, scale 0 to 100 (0 no effect, 100 complete control), read-out: Plant response rating, Field Violet",65%
same,pest or weed control at 125 g/ha,"field violet; Viola arvensis, post-emergence, 125 g ai/ha, scale 0 to 100 (0 no effect, 100 complete control), read-out: Plant response rating, Field Violet",70%
